Measured values as given in PubChem BioAssay (NCI).
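Test compounds were applied to cells in 96-well plates for 48 hours at 5 doses. TGI is the concentration that stops growth completely.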

Legend:
Test in all cases: NCI tumour cell line growth inhibition, 48 h
786-0 renal = tested on: 786-0 renal
A498 renal = tested on: A498 renal
A549 NSCLC = tested on: A549 NSCLC
ACHN renal = tested on: ACHN renal
CAKI-1 renal = tested on: CAKI-1 renal
CCRF-CEM leukemia = tested on: CCRF-CEM leukemia
COLO 205 colon = tested on: COLO 205 colon
DLD-1 colon = tested on: DLD-1 colon
DMS 114 small cell lung = tested on: DMS 114 small cell lung
DMS 273 small cell lung = tested on: DMS 273 small cell lung
EKVX NSCLC = tested on: EKVX NSCLC
HCC-2998 colon = tested on: HCC-2998 colon
HCT-116 colon = tested on: HCT-116 colon
HCT-15 colon = tested on: HCT-15 colon
HL-60(TB) leukemia = tested on: HL-60(TB) leukemia
HOP-62 NSCLC = tested on: HOP-62 NSCLC
HOP-92 NSCLC = tested on: HOP-92 NSCLC
HT29 colon = tested on: HT29 colon
IGROV1 ovarian = tested on: IGROV1 ovarian
K-562 leukemia = tested on: K-562 leukemia
KM12 colon = tested on: KM12 colon
KM20L2 colon = tested on: KM20L2 colon
LOX IMVI melanoma = tested on: LOX IMVI melanoma
LXFL 529 NSCLC = tested on: LXFL 529 NSCLC
M14 melanoma = tested on: M14 melanoma
M19-MEL melanoma = tested on: M19-MEL melanoma
MALME-3M melanoma = tested on: MALME-3M melanoma
MOLT-4 leukemia = tested on: MOLT-4 leukemia
NCI-H226 lung = tested on: NCI-H226 lung
NCI-H23 lung = tested on: NCI-H23 lung
NCI-H460 lung = tested on: NCI-H460 lung
NCI-H522 lung = tested on: NCI-H522 lung
OVCAR-3 ovarian = tested on: OVCAR-3 ovarian
OVCAR-4 ovarian = tested on: OVCAR-4 ovarian
OVCAR-5 ovarian = tested on: OVCAR-5 ovarian
OVCAR-8 ovarian = tested on: OVCAR-8 ovarian
RPMI-8226 leukemia = tested on: RPMI-8226 leukemia
RXF 393 renal = tested on: RXF 393 renal
RXF-631 renal = tested on: RXF-631 renal
SF-268 CNS = tested on: SF-268 CNS
SF-295 CNS = tested on: SF-295 CNS
SF-539 CNS = tested on: SF-539 CNS
SK-MEL-2 melanoma = tested on: SK-MEL-2 melanoma
SK-MEL-28 melanoma = tested on: SK-MEL-28 melanoma
SK-MEL-5 melanoma = tested on: SK-MEL-5 melanoma
SK-OV-3 ovarian = tested on: SK-OV-3 ovarian
SN12C renal = tested on: SN12C renal
SNB-19 CNS = tested on: SNB-19 CNS
SNB-75 CNS = tested on: SNB-75 CNS
SNB-78 CNS = tested on: SNB-78 CNS
SR leukemia = tested on: SR leukemia
SW-620 colon = tested on: SW-620 colon
TK-10 renal = tested on: TK-10 renal
U251 CNS = tested on: U251 CNS
UACC-257 melanoma = tested on: UACC-257 melanoma
UACC-62 melanoma = tested on: UACC-62 melanoma
UO-31 renal = tested on: UO-31 renal
XF 498 CNS = tested on: XF 498 CNS

With COC(=O)c1nc(N)[nH]c(=O)c1-c1ccc(Cl)cc1 the TGI (786-0 renal) was over 100 µM, the TGI (A498 renal) was over 100 µM and the TGI (A549 NSCLC) was over 100 µM. For the same compound, the TGI (ACHN renal) was over 100 µM, the TGI (CAKI-1 renal) was over 100 µM and the TGI (CCRF-CEM leukemia) was over 100 µM. The TGI (COLO 205 colon) was over 100 µM, the TGI (DLD-1 colon) was over 100 µM and the TGI (DMS 114 small cell lung) was over 100 µM. For the same compound, the TGI (DMS 273 small cell lung) was over 100 µM, the TGI (EKVX NSCLC) was over 100 µM and the TGI (HCC-2998 colon) was over 100 µM. It also gave a TGI (HCT-116 colon) of over 100 µM, a TGI (HCT-15 colon) of over 100 µM and a TGI (HL-60(TB) leukemia) of over 100 µM. The TGI (HOP-62 NSCLC) was over 100 µM, the TGI (HOP-92 NSCLC) was over 100 µM and the TGI (HT29 colon) was over 100 µM. For the same compound, the TGI (IGROV1 ovarian) was over 100 µM, the TGI (K-562 leukemia) was over 100 µM and the TGI (KM12 colon) was over 100 µM. It also gave a TGI (KM20L2 colon) of over 100 µM, a TGI (LOX IMVI melanoma) of over 100 µM and a TGI (LXFL 529 NSCLC) of over 100 µM. The TGI (M14 melanoma) was over 100 µM, the TGI (M19-MEL melanoma) was over 100 µM and the TGI (MALME-3M melanoma) was over 100 µM. For the same compound, the TGI (MOLT-4 leukemia) was over 100 µM, the TGI (NCI-H226 lung) was over 100 µM and the TGI (NCI-H23 lung) was over 100 µM. It also gave a TGI (NCI-H460 lung) of over 100 µM, a TGI (NCI-H522 lung) of over 100 µM and a TGI (OVCAR-3 ovarian) of over 100 µM. It also gave a TGI (OVCAR-4 ovarian) of over 100 µM, a TGI (OVCAR-5 ovarian) of over 100 µM and a TGI (OVCAR-8 ovarian) of over 100 µM. It also gave a TGI (RPMI-8226 leukemia) of over 100 µM, a TGI (RXF 393 renal) of over 100 µM and a TGI (RXF-631 renal) of over 100 µM. It also gave a TGI (SF-268 CNS) of over 100 µM, a TGI (SF-295 CNS) of over 100 µM and a TGI (SF-539 CNS) of over 100 µM. For the same compound, the TGI (SK-MEL-2 melanoma) was over 100 µM, the TGI (SK-MEL-28 melanoma) was over 100 µM and the TGI (SK-MEL-5 melanoma) was over 100 µM. The TGI (SK-OV-3 ovarian) was over 100 µM, the TGI (SN12C renal) was over 100 µM and the TGI (SNB-19 CNS) was over 100 µM. For the same compound, the TGI (SNB-75 CNS) was over 100 µM, the TGI (SNB-78 CNS) was over 100 µM and the TGI (SR leukemia) was over 86.6 µM. It also gave a TGI (SW-620 colon) of over 100 µM, a TGI (TK-10 renal) of over 100 µM and a TGI (U251 CNS) of over 100 µM. For the same compound, the TGI (UACC-257 melanoma) was over 100 µM, the TGI (UACC-62 melanoma) was over 100 µM and the TGI (UO-31 renal) was over 100 µM. The TGI (XF 498 CNS) was over 100 µM.
